Laboratory results published in article PMC4335544 (Critical Care, 2015).

Assays:
[1] = Spontaneous drug degradation in control polypropylene tubes (whole blood); type: in vitro ADME; conditions: human whole blood, polypropylene tubes under agitation at 25°C, up to 48 hours; HPLC-UV or immuno-enzymatic method
[2] = 37°C, 4.5 L/minute
Procedure: Whole ECMO circuits (Maquet®, Orleans, France) comprising a Quadrox® membrane oxygenator, a centrifugal pump, a heat exchanger and PVC tubing were used for ex vivo tests. All components of the circuit were treated with heparin (Bioline coating®, Maquet). Drug-free human whole blood (800 mL) was used to prime the circuit. In order to replicate the in vivo operating conditions, the temperature of the circulating blood was set at 37°C and circuit flow rate at 4.5 L/minute.
During ex vivo ECMO runs, serial post-membrane blood samples were obtained at 30 minutes, 1 hour, 2 hours, 3 hours, 4 hours, 5 hours, 24 hours and 48 hours after drug introduction into the circuit. Until analysis, samples were kept at 4°C and plasma separated and frozen at −20°C. To determine spontaneous drug degradation, blood containing identical concentrations of the drugs studied was kept in polypropylene tubes under agitation at 25°C for the same time before measurements.
Propofol and midazolam concentrations were measured using high performance liquid chromatography with an ultra-violet detector (Waters, Milford, MA, USA).
Changes of mean drug concentrations over time were compared between control and experimental conditions by modeling using a linear mixed effect model. […] Model choice was guided by the lowest Akaike criteria value. The mixed effect model was then fitted with R software version 3.0.2 and the ‘nlme’ library [10].

[3] = octanol/water; ref 13-16 (Drug Bank); cited from earlier work
[4] = Description: To further explore the role of temperature, oxygen exposure and PVC surfaces on propofol loss in the ECMO circuit, the following experiments were conducted. A polypropylene tube containing human whole blood was spiked with the propofol stock solution to obtain a concentration of […]. The effect of the temperature, oxygen exposure and contact with PVC surfaces were assessed by incubating the tube at 37°C, applying oxygen (1 L/minute) for 10 seconds to the preparation and by distributing the preparation into 5-cm PVC tubes, respectively. Polypropylene tubes containing blood and propofol at the same concentration were stored at room temperature and were used as controls. Propofol concentrations were measured at 0 minutes, 5 minutes, 10 minutes, 15 minutes, 20 minutes, 25 minutes, 30 minutes and 45 minutes from each preparation. These experiments were conducted in triplicate.
[5] = cited from earlier work
Excerpt: Vancomycin, which is the drug of choice for treating beta-lactam resistant Gram-positive bacteria, is frequently prescribed to ECMO patients.

Compound	concentration over time in control polypropylene tubes [1]	baseline concentration detected in ECMO circuit ([2]; at 30 minutes, human whole blood, HPLC-UV, mean of n = 3 circuits) [%]	baseline concentration remaining in ECMO circuit ([2]; at 24 hours, human whole blood, midazolam HPLC-UV, cyclosporine immuno-enzymatic method, mean of n = 3 circuits) [%]	Partition coefficient (log P) [3]	loss of propofol on contact with PVC tubing ([4]; after 45 minutes, human whole blood distributed into 5-cm PVC tubes, propofol 2 μg/L as printed, mean of n = 3) [%]	loss of propofol on oxygen exposure ([4]; after 45 minutes, human whole blood in polypropylene tube, oxygen 1 L/minute for 10 seconds, propofol 2 μg/L as printed, mean of n = 3) [%]	effect of heating to 37°C on propofol concentration ([4]; polypropylene tube with human whole blood at 37°C, up to 45 minutes, n = 3)	baseline concentration lost in ECMO circuit ([2]; 30 minutes after introduction, Maquet circuit, Quadrox oxygenator, PVC tubing, heparin coating, 800 mL human whole blood, propofol 2 μg/mL, HPLC-UV, mean of n = 3 circuits) [%]	initial concentration remaining in ECMO circuit ([2]; after 5 hours, human whole blood, HPLC-UV, mean of n = 3 circuits) [%]	fraction remaining in ECMO circuit ([2]; beyond 24 hours, human whole blood, HPLC-UV, n = 3 circuits)	concentration in ECMO circuit, result in words ([2]; during the 48 hours of the protocol, human whole blood, immuno-enzymatic method, n = 3 circuits)	decrease in concentration, used circuit ([5]; circuit which had been running for five days, ref 3 (Dagan et al.)) [%]	decrease in concentration, new circuit ([5]; drug introduced in a new circuit, ref 3 (Dagan et al.)) [%]	levels in ECMO circuit, result in words ([5]; ex vivo models, 24 hours, ref 20 (Mehta et al.), ref 19 (Shekar et al.))	decrease in concentration, neonatal and pediatric circuits ([5]; neonatal and pediatric circuits, ref 6 (Wildschut et al.))
Cc1ncc2n1-c1ccc(Cl)cc1C(c1ccccc1F)=NC2 [Midazolam]	remained stable	54	11	3.9	–	–	–	–	–	–	–	–	–	–	–
CC(C)c1cccc(C(C)C)c1O [Propofol]	remained stable	–	–	4.0	85	70	no effect	70	11	negligible	–	–	–	–	–
Vancomycin	remained stable	–	–	–	–	–	–	–	–	–	remained stable	11	36	remained unchanged	up to 46%
